Data: article PMC6315005, “5F-Cumyl-PINACA in ‘e-liquids’ for electronic cigarettes: comprehensive characterization of a new type of synthetic cannabinoid in a trendy product including investigations on the in vitro and in vivo phase I metabolism of 5F-Cumyl-PINACA and its non-fluorinated analog Cumyl-PINACA” (Forensic Toxicology, 2018)
Where two headings read alike, the source gives them in different places.

What was measured:
CB1 receptors = system: CB1 receptors; parameters: method as in PMID 28792725; conditions: mouse AtT-20 neuroblastoma cells, membrane potential; cited from earlier work
CB2 receptors = system: CB2 receptors; parameters: method as in PMID 28792725; conditions: mouse AtT-20 neuroblastoma cells, membrane potential; cited from earlier work
CB1 receptor = system: CB1 receptor; parameters: method as in PMID 29367862; conditions: [35S]GTPγS binding; cited from earlier work
CB2 receptor = system: CB2 receptor; parameters: method as in PMID 29367862; conditions: [35S]GTPγS binding; cited from earlier work
[1] = Authentic urine sample, phase I metabolites of 5F-Cumyl-PINACA (LC-MS/MS); assay type: in vivo, human; conditions: for Urine [Peak area]: 5F-Cumyl-PINACA consumption
Protocol: (§1) The LC–MS/MS system used for the analysis of the urine and the pHLM assay samples consisted of a Nexera X2 UHPLC (Shimadzu) coupled to a QTRAP™ 5500 triple quadrupole linear ion trap instrument (SCIEX) equipped with the TurboIonSpray® probe. […] The total flow rate was 0.4 mL/min. The autosampler and the column oven temperatures were set to 10 and 40 °C, respectively.
(§2) The MRM ion transitions of the parent compounds were optimized carefully in positive ionization mode (see Supplementary Tables S1 and S2). Enhanced product ion (EPI) scan experiments were performed using hypothetical masses of anticipated phase I metabolites, and the obtained spectra were compared to the EPI spectrum of the respective parent compound. In order to detect unexpected metabolites not covered by the EPI scan approach, precursor ion scan experiments for the characteristic fragment ion at m/z 145 and for the m/z of its modified analogs 161 (monohydroxylation), 177 (dihydroxylation) and 179 (dihydrodiol) were conducted. The relative abundances of the characterized metabolites in the urine samples obtained during the self-administration study were compared using an MRM method comprising the most abundant ion transitions of each metabolite (see Supplementary Fig. S1 and Table S3).
The analysis of in vivo metabolism of 5F-Cumyl-PINACA in an authentic urine sample was conducted in accordance with the client’s inquest.
(§3) In order to cleave conjugates, 0.5 mL of an urine sample was incubated at 45 °C for 1 h after addition of 0.5 mL phosphate buffer (pH 6) and 30 µL β-glucuronidase. In a next step, 1.5 mL acetonitrile and 0.5 mL ammonium formate ([…]) were added. After shaking and centrifugation, 1 mL of the acetonitrile phase was transferred into a glass vial and evaporated to dryness under a gentle nitrogen stream at 40 °C. The residue was reconstituted in 200 µL mobile phase A/B (50:50, v/v) directly before LC–MS/MS analysis. Blank urine samples were prepared serving as negative controls.

[2] = Self-administration study, phase I metabolites of Cumyl-PINACA in urine (LC-MS/MS); assay type: in vivo, human; conditions: for peak area in urine: normalized to creatinine 100 mg/dL
Protocol: as §1, §2
To investigate the in vivo phase I metabolism of Cumyl-PINACA, one of the authors (75 kg person) ingested 0.6 mg Cumyl-PINACA orally. In addition to blank samples taken prior to ingestion, serum and urine samples were collected repeatedly over periods of 17 and 31 h after ingestion, respectively. All samples were stored at − 20 °C until analysis. In Germany, approval by an ethics committee is not required for scientific self-experiments.
as §3

[3] = system: pooled human liver microsomes (pHLM); experiment: Pooled human liver microsome assay (phase I metabolism); assay type: in vitro ADME; conditions: 60 min, 37 °C
Protocol: as §1, §2
To investigate the tentative phase I metabolism of Cumyl-PINACA and 5F-Cumyl-PINACA (extracted from e-liquids), in vitro experiments with pHLM were performed in triplicates. A 0.5-µL volume of a substrate solution ([…] in acetonitrile) was added to 49.5 µL of a reaction mixture consisting of 2.5 µL pHLM, 2.5 µL NADPH regenerating solution A, 0.5 µL NADPH regenerating solution B, 5.0 µL SOD, 10 µL 0.5 M phosphate buffer, and 29 µL deionized water. Incubation was performed for 60 min at 37 °C. The reaction was terminated by the addition of ice-cold acetonitrile, and the supernatant was analyzed after 1:10 dilution with mobile phase A/B (50:50, v/v). Blank pHLM samples were processed in the same way serving as negative controls.

[4] = Self-administration study, phase I metabolites of Cumyl-PINACA in urine (LC-MS/MS); assay type: in vivo, human; conditions: normalized to creatinine 100 mg/dL
CB1 = target: T1, CB1 (Homo sapiens, UniProt P21554); experiment: cAMP biosensor assay with CB1 as target (DiscoveRx); assay type: cell-based; conditions: for Curve top: agonist format, 20 µM forskolin; for Emax: read-out: Maximum response (compared to CP-55,940)
T1 construct: purchased DiscoveRx (Fremont, CA, USA)
T1 sequence (P21554 whole entry): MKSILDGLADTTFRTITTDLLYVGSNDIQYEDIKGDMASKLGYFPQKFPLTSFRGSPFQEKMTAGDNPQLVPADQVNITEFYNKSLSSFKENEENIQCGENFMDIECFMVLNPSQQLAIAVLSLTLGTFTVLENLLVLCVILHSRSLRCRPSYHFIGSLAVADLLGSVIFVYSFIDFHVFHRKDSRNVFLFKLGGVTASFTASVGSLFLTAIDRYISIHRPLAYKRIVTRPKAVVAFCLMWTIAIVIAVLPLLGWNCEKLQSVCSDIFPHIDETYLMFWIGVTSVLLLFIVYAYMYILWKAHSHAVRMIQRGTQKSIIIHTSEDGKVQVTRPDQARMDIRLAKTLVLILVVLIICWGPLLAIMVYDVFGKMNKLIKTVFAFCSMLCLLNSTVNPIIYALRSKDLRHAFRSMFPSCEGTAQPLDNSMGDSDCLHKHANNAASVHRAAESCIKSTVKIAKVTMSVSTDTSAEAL
Protocol: Each compound was tested in duplicates; to induce response, 20 µM forskolin was used.

[5] = 6 h after 0.6 mg Cumyl-PINACA oral
[6] = 16 h after 0.6 mg Cumyl-PINACA oral
[7] = 20.3 h after 0.6 mg Cumyl-PINACA oral
[8] = 22.3 h after 0.6 mg Cumyl-PINACA oral
[9] = 26.3 h after 0.6 mg Cumyl-PINACA oral
[10] = 29.3 h after 0.6 mg Cumyl-PINACA oral
[11] = pHLM incubation of 5F-Cumyl-PINACA
[12] = pHLM incubation of Cumyl-PINACA
[13] = 37.2 h after 0.6 mg Cumyl-PINACA oral

Structure (SMILES): CC(C)(NC(=O)c1nn(CC2CCCCC2)c2ccccc12)c1ccccc1
- potency of CB1 receptor activation compared to CP-55,940 (CB1 receptors): greater potency than CP-55,940
- potency of CB2 receptor activation compared to CP-55,940 (CB2 receptors): greater potency than CP-55,940

Structure (SMILES): CC(C)(NC(=O)c1cn(CCCCCF)c2ccccc12)c1ccccc1 [5F-Cumyl-PICA, reference compound]
- potency of CB1 receptor activation compared to CP-55,940 (CB1 receptors): greater potency than CP-55,940
- potency of CB2 receptor activation compared to CP-55,940 (CB2 receptors): greater potency than CP-55,940
- CB1 activity compared to CP-55,940 (CB1 receptor): less activities as compared to CP-55,940
- CB2 activity compared to CP-55,940 (CB2 receptor): less activities as compared to CP-55,940

Structure (SMILES): CC(C)(NC(=O)c1nn(CCCCCF)c2ccccc12)c1ccccc1 [5F-Cumyl-PINACA, 1-(5-fluoropentyl)-N-(2-phenylpropan-2-yl)-1H-indazole-3-carboxamide]
- detection of parent compound in urine [1]: not detected
- potency of CB1 receptor activation compared to CP-55,940 (CB1 receptors): greater potency than CP-55,940
- potency of CB2 receptor activation compared to CP-55,940 (CB2 receptors): greater potency than CP-55,940
- CB1 activity compared to CP-55,940 (CB1 receptor): less activities as compared to CP-55,940
- CB2 activity compared to CP-55,940 (CB2 receptor): less activities as compared to CP-55,940

Structure (SMILES): CC(C)(NC(=O)c1nn(CCCCC(=O)O)c2ccccc12)c1ccccc1 [A07]
- peak area in urine [2, 5]: 8.4E+04
- peak area in urine [2, 6]: 1.1E+05
- peak area in urine [2, 7]: 5.2E+04
- peak area in urine [2, 8]: 6.0E+04
- peak area in urine [2, 9]: 4.2E+04
- peak area in urine [2, 10]: 2.1E+04
- pHLM [Peak area] [3, 11]: 9.3E+06
- pHLM [Peak area] [3, 12]: 2.9E+06
- Urine [Peak area] [1]: 1.8E+05
- peak area in urine [4, 13]: 1.7E+04

Structure (SMILES): CC(C)(NC(=O)c1nn(CCCCCO)c2ccccc12)c1ccccc1 [A08]
- detectable in urine after self-administration ([2]; 0.6 mg Cumyl-PINACA oral): over 8 days
- relative abundance in urine samples ([2]; 0.6 mg Cumyl-PINACA oral): most abundant metabolite in all analyzed urine samples
- peak area in urine [2, 5]: 1.7E+07
- peak area in urine [2, 6]: 4.1E+06
- peak area in urine [2, 7]: 1.4E+06
- peak area in urine [2, 8]: 1.5E+06
- peak area in urine [2, 9]: 7.7E+05
- peak area in urine [2, 10]: 5.7E+05
- pHLM [Peak area] [3, 11]: 6.0E+07
- pHLM [Peak area] [3, 12]: 7.3E+07
- abundance in authentic urine sample [1]: high abundance
- Urine [Peak area] [1]: 2.2E+05
- peak area in urine ([4]; 3.2 h after 0.6 mg Cumyl-PINACA oral): 1.1E+06
- peak area in urine [4, 13]: 4.5E+05
- peak area in urine ([4]; 39 h after 0.6 mg Cumyl-PINACA oral): 2.9E+05
- peak area in urine ([4]; 88.5 h after 0.6 mg Cumyl-PINACA oral): 2.6E+04
- peak area in urine ([4]; 110.3 h after 0.6 mg Cumyl-PINACA oral): 6.1E+04
- peak area in urine ([4]; 134 h after 0.6 mg Cumyl-PINACA oral): 2.7E+04
- peak area in urine ([4]; 157.5 h after 0.6 mg Cumyl-PINACA oral): 1.5E+04
- peak area in urine ([4]; 182.5 h after 0.6 mg Cumyl-PINACA oral): 1.3E+04
- peak area in urine ([4]; 205.5 h after 0.6 mg Cumyl-PINACA oral): 1.1E+04

Structure (SMILES): CC(C)C(NC(=O)c1nn(Cc2ccc(F)cc2)c2ccccc12)C(N)=O (stereo not shown) [AB-FUBINACA]
- EC50 (CB1): 0.89 nM
- Curve top (CB1): 97.4
- Emax (CB1; control ligand CP-55,940): 97.8%

Structure (SMILES): CCCCCn1nc(C(=O)NC(C(N)=O)C(C)C)c2ccccc21 (stereo not shown) [AB-PINACA]
- EC50 (CB1): 1.74 nM
- Curve top (CB1): 92.3
- Emax (CB1; control ligand CP-55,940): 95.3%

Structure (SMILES): CC(C)C(NC(=O)c1nn(CC2CCCCC2)c2ccccc12)C(N)=O (stereo not shown) [AB-[…]]
- EC50 (CB1): 0.28 nM
- Curve top (CB1): 94.8
- Emax (CB1): 94.8%

Structure (SMILES): O=C(c1cccc2ccccc12)c1cn(CCCCCF)c2ccccc12 [AM-2201]
- EC50 (CB1): 0.45 nM
- Curve top (CB1): 103
- Emax (CB1; control ligand CP-55,940): 101%

Structure (SMILES): CC(C)(NC(=O)c1nn(CCCCCF)c2c1=CC(O)C(O)C=2)c1ccccc1 (stereo not shown) [B01]
- pHLM [Peak area] [3, 11]: 7.0E+06
- Urine [Peak area] [1]: 5.6E+04

Structure (SMILES): CCCCn1cc(C(=O)NC(C)(C)c2ccccc2)c2ccccc21 [Cumyl-BICA]
- potency of CB1 receptor activation compared to CP-55,940 (CB1 receptors): greater potency than CP-55,940
- potency of CB2 receptor activation compared to CP-55,940 (CB2 receptors): greater potency than CP-55,940

Structure (SMILES): CCCCn1nc(C(=O)NC(C)(C)c2ccccc2)c2ccccc21 [Cumyl-BINACA]
- potency of CB1 receptor activation compared to CP-55,940 (CB1 receptors): greater potency than CP-55,940
- potency of CB2 receptor activation compared to CP-55,940 (CB2 receptors): greater potency than CP-55,940

Structure (SMILES): CC(C)(NC(=O)c1cn(CC2CCCCC2)c2ccccc12)c1ccccc1 [Cumyl-CHMICA]
- potency of CB1 receptor activation compared to CP-55,940 (CB1 receptors): greater potency than CP-55,940
- potency of CB2 receptor activation compared to CP-55,940 (CB2 receptors): greater potency than CP-55,940

Structure (SMILES): CC(C)(NC(=O)c1nn(Cc2ccc(F)cc2)c2ccccc12)c1ccccc1 [Cumyl-FUBINACA]
- potency of CB1 receptor activation compared to CP-55,940 (CB1 receptors): greater potency than CP-55,940
- potency of CB2 receptor activation compared to CP-55,940 (CB2 receptors): greater potency than CP-55,940

Structure (SMILES): CCCCCn1cc(C(=O)NC(C)(C)c2ccccc2)c2ccccc21 [Cumyl-PICA, reference compound]
- potency of CB1 receptor activation compared to CP-55,940 (CB1 receptors): greater potency than CP-55,940
- potency of CB2 receptor activation compared to CP-55,940 (CB2 receptors): greater potency than CP-55,940
- CB1 activity compared to CP-55,940 (CB1 receptor): less activities as compared to CP-55,940
- CB2 activity compared to CP-55,940 (CB2 receptor): less activities as compared to CP-55,940

Structure (SMILES): CCCCCn1c2ccccc2c2cc(C(=O)c3cccc4ccccc34)ccc21 [EG-018]
- Curve top (CB1): 74.3
- Emax (CB1; control ligand CP-55,940): 71.8%

Structure (SMILES): CCCCCn1cc(C(=O)c2cccc3ccccc23)c2ccccc21 [JWH-018]
- EC50 (CB1): 1.13 nM
- Curve top (CB1): 97.6
- Emax (CB1; control ligand CP-55,940): 97.4%

Structure (SMILES): COC(=O)C(NC(=O)c1cn(CC2CCCCC2)c2ccccc12)C(C)(C)C (stereo not shown) [MDMB-CHMICA]
- EC50 (CB1): 0.14 nM
- Curve top (CB1): 94.8
- Emax (CB1; control ligand CP-55,940): 94.6%

Structure (SMILES): O=C(c1cccc2ccccc12)c1nn(CCCCCF)c2ccccc12 [THJ-2201]
- EC50 (CB1): 1.68 nM
- Curve top (CB1): 95.6
- Emax (CB1; control ligand CP-55,940): 91.9%
